ChEMBL document CHEMBL1255356, “The efflux pump inhibitor reserpine selects multidrug-resistant Streptococcus pneumoniae strains that overexpress the ABC transporters PatA and PatB” (2008)
Converted amounts (≈) assume the structure as drawn.

Assays:
Streptococcus pneumoniae [1] = experiment: Inhibition of ABC efflux pump in Streptococcus pneumoniae M169 assessed as reduction in ciprofloxacin MIC at 80 ug/ml
Streptococcus pneumoniae [2] = experiment: Inhibition of ABC efflux pump in Streptococcus pneumoniae M186 assessed as increase in accumulation of ciprofloxacin by fluorometric uptake assay relative to wild type
Streptococcus pneumoniae [3] = experiment: Inhibition of ABC efflux pump in Streptococcus pneumoniae M4 assessed as increase in accumulation of ciprofloxacin by fluorometric uptake assay relative to wild type
Streptococcus pneumoniae [4] = experiment: Inhibition of ABC efflux pump in Streptococcus pneumoniae M186 assessed as increase in accumulation of ethidium bromide by fluorescence method after 10 mins relative to wild type; design: scale not given: the % may be the effect or the level left
Streptococcus pneumoniae [5] = experiment: Inhibition of ABC efflux pump in Streptococcus pneumoniae M184 assessed as increase in accumulation of ciprofloxacin by fluorometric uptake assay relative to wild type
Streptococcus pneumoniae [6] = experiment: Inhibition of ABC efflux pump in Streptococcus pneumoniae M186 assessed as reduction in ciprofloxacin MIC at 80 ug/ml
Streptococcus pneumoniae [7] = experiment: Antibacterial activity against Streptococcus pneumoniae M184 by microdilution method; assay type: functional
Streptococcus pneumoniae [8] = experiment: Antibacterial activity against Streptococcus pneumoniae M240 by microdilution method; assay type: functional
Streptococcus pneumoniae [9] = experiment: Antibacterial activity against Streptococcus pneumoniae M169 by microdilution method; assay type: functional
Streptococcus pneumoniae [10] = experiment: Antibacterial activity against Streptococcus pneumoniae M4 by microdilution method; assay type: functional
Streptococcus pneumoniae [11] = experiment: Antibacterial activity against Streptococcus pneumoniae M246 by microdilution method; assay type: functional
Streptococcus pneumoniae [12] = experiment: Inhibition of ABC efflux pump in Streptococcus pneumoniae M169 assessed as increase in accumulation of ciprofloxacin by fluorometric uptake assay relative to wild type
Streptococcus pneumoniae [13] = experiment: Antibacterial activity against Streptococcus pneumoniae M168 by microdilution method; assay type: functional
Streptococcus pneumoniae [14] = experiment: Inhibition of ABC efflux pump in Streptococcus pneumoniae M184 assessed as reduction in ciprofloxacin MIC at 80 ug/ml
Streptococcus pneumoniae [15] = experiment: Antibacterial activity against Streptococcus pneumoniae R6 by microdilution method; assay type: functional
Streptococcus pneumoniae [16] = experiment: Inhibition of ABC efflux pump in Streptococcus pneumoniae M184 assessed as increase in accumulation of ethidium bromide by fluorescence method after 10 mins relative to wild type; design: scale not given: the % may be the effect or the level left
Streptococcus pneumoniae [17] = experiment: Inhibition of ABC efflux pump in Streptococcus pneumoniae M168 assessed as increase in accumulation of ethidium bromide by fluorescence method after 10 mins relative to Streptococcus pneumoniae M4; design: scale not given: the % may be the effect or the level left
Streptococcus pneumoniae [18] = experiment: Antibacterial activity against Streptococcus pneumoniae M186 by microdilution method; assay type: functional
Streptococcus pneumoniae [19] = experiment: Inhibition of ABC efflux pump in Streptococcus pneumoniae M169 assessed as increase in accumulation of ethidium bromide by fluorescence method after 10 mins relative to wild type; design: scale not given: the % may be the effect or the level left
Streptococcus pneumoniae [20] = experiment: Antibacterial activity against Streptococcus pneumoniae M234 by microdilution method; assay type: functional
Streptococcus pneumoniae [21] = experiment: Inhibition of ABC efflux pump in Streptococcus pneumoniae M168 assessed as increase in accumulation of ciprofloxacin by fluorometric uptake assay relative to sStreptococcus pneumoniae M4
Streptococcus pneumoniae [22] = experiment: Antibacterial activity against Streptococcus pneumoniae M230 by microdilution method; assay type: functional
Streptococcus pneumoniae [23] = experiment: Antibacterial activity against Streptococcus pneumoniae M236 by microdilution method; assay type: functional
Streptococcus pneumoniae [24] = experiment: Antibacterial activity against Streptococcus pneumoniae M235 by microdilution method; assay type: functional
Streptococcus pneumoniae [25] = experiment: Antibacterial activity against Streptococcus pneumoniae M231 by microdilution method; assay type: functional
Streptococcus pneumoniae [26] = experiment: Antibacterial activity against Streptococcus pneumoniae M233 by microdilution method; assay type: functional

In the case of COC(=O)[C@H]1[C@H]2C[C@@H]3c4[nH]c5cc(OC)ccc5c4CCN3C[C@H]2C[C@@H](OC(=O)c2cc(OC)c(OC)c(OC)c2)[C@@H]1OC [RESERPINE], the Activity (Streptococcus pneumoniae [1]) is reported as 1 µg/mL, the fold change (FC) (Streptococcus pneumoniae [2]) is reported as 2.1 and the fold change (FC) (Streptococcus pneumoniae [3]) is reported as 1.6. For the same molecule, the Activity (Streptococcus pneumoniae [4]) was 32.9%, the fold change (FC) (Streptococcus pneumoniae [5]) was 2.8 and the Activity (Streptococcus pneumoniae [6]) was 1 µg/mL. The MIC (Streptococcus pneumoniae [7]) was 256 µg/mL (≈ 421 µM), the MIC (Streptococcus pneumoniae [8]) was 64 µg/mL (≈ 105 µM) and the MIC (Streptococcus pneumoniae [9]) was 256 µg/mL (≈ 421 µM). The MIC (Streptococcus pneumoniae [10]) was 64 µg/mL (≈ 105 µM), the MIC (Streptococcus pneumoniae [11]) was 64 µg/mL (≈ 105 µM) and the fold change (FC) (Streptococcus pneumoniae [12]) was 2.9. For the same molecule, the MIC (Streptococcus pneumoniae [13]) was 256 µg/mL (≈ 421 µM), the Activity (Streptococcus pneumoniae [14]) was 1 µg/mL and the MIC (Streptococcus pneumoniae [15]) was 64 µg/mL (≈ 105 µM). For the same molecule, the Activity (Streptococcus pneumoniae [16]) was 26.7%, the Activity (Streptococcus pneumoniae [17]) was 27.7% and the MIC (Streptococcus pneumoniae [18]) was 256 µg/mL (≈ 421 µM). It also gave an Activity (Streptococcus pneumoniae [19]) of 24.6%, an MIC (Streptococcus pneumoniae [20]) of 64 µg/mL (≈ 105 µM) and a fold change (FC) (Streptococcus pneumoniae [21]) of 2.3. The MIC (Streptococcus pneumoniae [22]) was 256 µg/mL (≈ 421 µM), the MIC (Streptococcus pneumoniae [23]) was 64 µg/mL (≈ 105 µM) and the MIC (Streptococcus pneumoniae [24]) was 256 µg/mL (≈ 421 µM). For the same molecule, the MIC (Streptococcus pneumoniae [25]) was 64 µg/mL (≈ 105 µM) and the MIC (Streptococcus pneumoniae [26]) was 256 µg/mL (≈ 421 µM).
